Measured values published in US20260210856A1, “CONJUGATED OLIGOELECTROLYTES WITH BORON-DIPYRROMETHENE CORES AND METHODS THEREOF” (National University of Singapore, priority 2022, published 2026).

Columns and labels:
[1] = test system: MDCK cells; experiment: Confocal microscopy of stained cells; format: cell-based; details: 1 μM, 10 minutes
Text: Our next objective was to study the cellular distribution of COE-BYPhOC4 series at different time points by conventional confocal microscopy.

[2] = Analyte viscosity sensing: fluorescence lifetime in the presence of different analytes; format: physicochemical; details: 0.5 μM
Procedure: Solutions of bovine serum albumin (BSA), high density lipoprotein (HDL), Liposomes of POPC:POPG 85:15 (SUVs) and Liposomes of POPC:POPG:Cholesterol 42.5:7.5:50 (SUV CHOL) were prepared at final concentrations of 1 mg/mL in PBS. COE-BYs were prepared at 1 μM in PBS. 150 μL of analyte and 150 μL of COE-BYs were mixed and incubated for 1 hour at 37C. Fluorescent emission profiles were measured with excitation at 545 nm.

[3] = Fluorescence lifetime in water:glycerol mixtures of varying viscosities; format: physicochemical; details: 590 nm, 20° C.
Procedure: The BODIPY unit of COE-BYs are sensitive to the viscosity of its environment. As an example, COE-BYPhMe was added to mixtures of water and glycerol at various ratios. The viscosity of the local environment has the most significant effect on its emission intensity and emission lifetime. The plot of log τ (fluorescence lifetime) versus log η (solvent viscosity) is fitted by a straight line.
We examined the sensitivity of COE-BYs to changes in viscosity in solution by using different glycerol and water mixtures. The viscosities of the solutions were increased through increases of the glycerol fraction. Of interest was the relationship between the viscosity (η) and the amplitude-weighted average emission lifetime (τw), which is defined by
Each individual lifetime component Tr is normalized to the corresponding amplitude (Ai) derived from fitting the emission decay to a multiexponential model, where p is the total number of exponents (1 or 2). […] It is known that increases in environmental viscosity restricts the rotation of the phenyl rings surrounding the BODIPY unit, which diminishes non-radiative decay pathways of the excited state, resulting in longer fluorescence lifetimes. […] Due to the low emission, we could not accurately extract emission lifetimes from the fluorescence decays of COE-BYPhCN and COE-BYPhNO.

[4] = Photophysical properties in PBS and in SUVs (POPC:POPG 85:15); format: physicochemical
Text: The photophysical properties of the COE-BY series were studied in phosphate-buffered saline (PBS) and within model lipid bilayers. Small unilamellar vesicles (SUVs) composed of 1-palmitoyl-2-oleoyl-glycero-3-phosphocholine (POPC) and 1-palmitoyl-2-oleoyl-sn-glycero-3-phospho-(1′-rac-glycerol) sodium (POPG) (85:15, mol/mol) were used to simulate the lipid environment in cell membranes. The absorption spectra in PBS for all compounds feature a main peak at ~550 nm, reflecting the presence of the BODIPY subunit (FIG. 9A). One also observes a 5-10 nm red-shift of lowest energy absorption peak with increasing electron-withdrawing strength of the phenyl substituents.
Upon inserting into lipid bilayers, the fluorescence intensity increases over 27-fold for COE-BYPhMe, 30-fold for COE-BYPhOC4, 35-fold for COE-BYPhCN and 40-fold for COE-BYPhNO, relative to the values measured in PBS (FIG. 1c and FIG. S5). The increase in emission intensity reflects a transition to a more rigid and hydrophobic environment. Quantum yields increase to 32% for COE-BYPhMe, 60% for COE-BYPhOC4, 13% for COE-BYPhCN, and 10% for COE-BYPhNO in SUVs from 1% for COE-BYPhMe, 3% for COE-BYPhOC4, and 0.5% for COE-BYPhCN in PBS. The QY of COE-BYPhNO in PBS cannot be accurately determined by using a conventional fluorometer due to its weak fluorescence. The maximum emission wavelengths are redshifted from 587/589 nm (COE-BYPhMe/OC4) to 605/611 nm (COE-BYPhCN/NO) as a result of the decreased HOMO-LUMO energy gaps. […] Furthermore, the fluorescence spectra of COE-BYs intercalated within SUVs show a narrow band at wavelengths between 587 nm and 611 nm, with a full width half maximum (FWHM) linewidth of 52-68 nm (Table 1).

[5] = Two-photon absorption cross section; format: physicochemical; details: intercalated into SUVs
Text: Dynamic biological processes in live cells often take place at a rapid time scale, necessitating rapid image acquisition. For 2P-FLIM applications, this is especially relevant since a significant photon count is required to ensure accurate decay statistics and lifetime values. Two-photon imaging provides access to the NIR-II window for excitation (1000-1700 nm), minimizing photodamage and eliminating out of focus noise. As such, dye brightness plays a key role in enabling high-quality imaging. We thus evaluated their two-photon absorption cross-section of the COE-BY series. […] These properties will become relevant when determining the utility of COE-BYPhOC4 to image the endocytosis pathway and different response of living cells.

[6] = test system: A549 cells; experiment: Uptake after pretreatment with endocytic inhibitors, flow cytometry; format: cell-based; details: 1 μM dye, 3 h
Procedure: (§1) To further understand the internalization of COE-BYPhOC4, A549 and HeLa cells were pretreated with endocytic inhibitors including pharmacological treatments genistein (caveolae-dependent), chlorpromazine (clathrin-dependent) and low temperature (energy-dependent). Cells were then stained by treatment with 1 μM COE-BYPhOC4 and the endocytosis inhibition efficiency was characterized by flow cytometry and fluorescence confocal imaging. […] The confocal images in FIG. 13C provide additional confirmation of this endocytosis pathway. Fluorescence signals are only observed on the plasma membranes in the chlorpromazine pretreated group, while COE-BYPhOC4 readily underwent endocytosis and appeared as red vesicular puncta in the other three groups. Successful plasma membrane staining similar to FIG. 12A also provides evidence of insertion into the membrane prior to endocytosis and subsequent trafficking together with other lipid molecules, as opposed to being directly engulfed within intracellular vesicles. This feature enables the dye to follow the endosomal pathway throughout the maturation process beginning from the plasma membrane, as opposed to commonly employed pH-dependent methods to control accumulation within vesicle subtypes.

[7] = test system: HeLa cells; experiment: as above; format: cell-based; details: 1 μM dye, 3 h
Procedure: as §1

Lifetime ([2]; analyte HDL 0.5 mg/mL): 4.02 ± 0.01 ns
Lifetime ([2]; analyte PBS): 0.56 ± 0.01 ns
Lifetime ([2]; analyte SUV (POPC:POPG 85:15) 0.5 mg/mL): 1.99 ± 0.01 ns
Lifetime ([2]; analyte SUV CHOL (POPC:POPG:Cholesterol 42.5:7.5:50) 0.5 mg/mL): 2.18 ± 0.01 ns
amplitude-weighted average emission lifetime τw ([3]; solution viscosity 22.5 cP): 0.5 ns
amplitude-weighted average emission lifetime τw ([3]; solution viscosity 939 cP): 1.2 ns
FWHM ([4]; fluorescence spectra, intercalated within SUVs): 56 nm
ΦF in PBS ([4]; in PBS): 3%
λabs ([4]; in PBS): 540 nm
λem in PBS ([4]; in PBS): 602 nm
ΦF in SUVs ([4]; in SUVs): 60%
λem in SUVs ([4]; in SUVs): 589 nm
fluorescence intensity increase upon inserting into lipid bilayers ([4]; relative to the values measured in PBS): > 30 fold
two photon absorption cross section area [5]: 486 GM
Compound: CCCCOc1ccc(C2=C3C(C)=C(c4ccc(/C=C/c5cc(OCCCCCC[N+](C)(C)C)c(OCCCCCC[N+](C)(C)C)c(OCCCCCC[N+](C)(C)C)c5)cc4)C(C)=[N+]3[B-](F)(F)n3c(C)c(-c4ccc(/C=C/c5cc(OCCCCCC[N+](C)(C)C)c(OCCCCCC[N+](C)(C)C)c(OCCCCCC[N+](C)(C)C)c5)cc4)c(C)c32)cc1.[I-].[I-].[I-].[I-].[I-].[I-] [COE-BYPhOC4]
staining pattern [1]: strong fluorescence signals were observed on the plasma membranes
dye fluorescence intensity relative to the untreated group ([6]; A549, chlorpromazine pretreatment): 14%
dye fluorescence intensity relative to the untreated group ([6]; A549, genistein pretreatment): 95%
dye fluorescence intensity relative to the untreated group ([7]; chlorpromazine pretreatment): 21%
dye fluorescence intensity relative to the untreated group ([7]; genistein pretreatment): 92%
